Positions of bridges follow the written chain, without caps; N, C: chain ends. Non-standard residues stand in square brackets, D forms with d. Residues, ends and D or L forms follow the SMILES beside them. *: point of attachment. X1 = NC[C@@H](CC(=O)*)c1cccc(Cl)c1; Dab = NCC[C@H](N)C(=O)O; Dap = NC[C@H](N)C(=O)O
Experiment: clinical
Parameters: species or system human
Conditions: in vivo; for AUC(0-inf): AUC0–inf; for clearance: CL; for Vd: Vz
Protocol: This was a single-center, phase 1, randomized, double-blind, placebo-controlled, first-in-human study to assess the safety, tolerability, and PK of SPR206 following SAD and MAD administrations (Fig. 7). In the SAD phase, subjects received a single i.v. dose of SPR206, and in the MAD phase, subjects received i.v. doses of SPR206 every 8 h (q8h) over a period of 7 to 14 days. SPR206 was administered as a 1 h i.v. infusion.
Maximum plasma concentration (Cmax), area under the concentration-time curve from time zero to last measurable time point (AUC0–t), area under the concentration-time curve from time zero to infinity (AUC0–inf), area under the concentration-time curve from time zero to tau (AUC0–tau), time to maximum concentration (Tmax), terminal elimination rate constant (kel), terminal half-life (t1/2), terminal clearance (CL), and volume of distribution (Vz) were determined. In addition, area under the concentration-time curve from 0 to 24 h after the start of infusion (AUC0–24) was determined for the SAD phase, and area under the concentration-time curve from time zero to 8 h from start of infusion (AUC0–8) on day 1 and 0 to 48 h (AUC0–48) following the last dose on day 14 as well as predose trough concentrations were determined for the MAD phase. Urine parameters included cumulative amount of drug excreted in successive urine intervals (Ae), renal clearance (CLR), fraction of cumulative fraction of dose recovered in urine as unchanged drug (Fe), and percentage fraction of cumulative fraction of dose recovered in urine as unchanged drug (Fe%). PK parameters were determined by noncompartmental analysis using Phoenix WinNonlin 8.1.
For the SAD phase, blood samples were obtained predose and at 30, 60, 75, 90, 105, 120, and 150 min and at 3, 5, 8, 12, and 24 h following the start of infusion. Urine was collected for PK assessment predose and over the intervals of 0 to 4 h, 4 to 8 h, 8 to 12 h, and 12 to 24 h after the start of infusion.
In the MAD phase, plasma samples for PK analysis were collected (i) on day 1—pre-dose and at 30, 60, 75, 90, 105, 120, and 150 min and at 3, 5, and 8 h following start of the first infusion; (ii) prior to the morning dose (within 10 min) on days 2, 3, 5, 7, 9, 11, and 13; and (iii) predose and 30, 75, 90, 105, 120, and 150 min and 3, 5, 8, and 12 h (day 14), 24, 36 (day 15), and 48 h (day 16) following start of the last infusion. Urine was collected for PK assessment on day 1 predose, over the intervals 0 to 4 h and 4 to 8 h after start of first infusion, and on days 14 and 15 over the intervals 0 to 4 h, 4 to 8 h, 8 to 12 h, and 12 to 24 h after start of day 14 infusion. Total 24-h urine for calculating CrCl was collected from the morning of day −1 to predose on day 1 and on days 15 and 16 over the interval from 24 to 48 h after the start of the day 14 infusion. Urine creatinine concentrations were measured using 24-h collections prior to the first dose on day 1 and over the 24 to 48 h following start of infusion of the last dose (day 14). Plasma and urine samples for SPR206 levels were analyzed using a validated liquid chromatography-tandem mass spectrometry (LC-MS/MS) method. The assay range for SPR206 was 50 to 5,000 ng/ml in plasma and 100 to 50,000 ng/ml in urine. In plasma, assay precision was 1.3 to 7.7%, accuracy was 1.2 to 9.5%, stability was 194 h at 4°C, and reproducibility was 98.4%. In urine, assay precision was 1.7 to 7.5%, accuracy was −4.8 to 7.3%, stability was 147 h at 4°C, and reproducibility was 97.8%.
Plasma and urine concentrations and PK parameters for SPR206 were summarized for each treatment using descriptive statistics. In the SAD/MAD study, geometric means were calculated for AUC and Cmax. Analyses using linear models were performed to assess dose proportionality (both single dose and multiple dose), time dependence, accumulation, and attainment of steady state after multiple doses. […]

In the case of `CC(C)C[C@@H]1NC(=O)[C@@H](Cc2ccccc2)NC(=O)[C@H](CCN)NC(=O)[C@@H](NC(=O)[C@H](CN)NC(=O)[C@@H](NC(=O)C[C@H](CN)c2cccc(Cl)c2)[C@@H](C)O)CCNC(=O)[C@H]([C@@H](C)O)NC(=O)[C@H](CCN)NC(=O)[C@H](CCN)NC1=O` [SPR206] (X1-T[Dap][Dab][Dab][dF]L[Dab][Dab]T; lactam 3-C (inferred)), the Tmax (human) is reported as 1.1 to 1.3 h, the “accumulation ratio for AUC0–inf” value (human) is reported as 1.3-1.8 and the “accumulation ratio for Cmax” value (human) is reported as 1.1-1.3. The “geometric CV for AUC0-inf” value (human) was 6.9-17.4%, the “AUC0–8” value (human, 25 mg) was 4,391 ± 740 h · ng/ml and the “AUC0–inf” value (human, 25 mg) was 5,197 ± 945 h · ng/ml. The AUC%ext (human, 25 mg) was 10.0 ± 4.5 ng·h/mL, the CL (human, 25 mg) was 4.9 ± 0.9 L/h and the Cmax (human, 25 mg) was 1,410 ± 241 ng/ml. For the same compound, the Vz (human, 25 mg) was 21.3 ± 3.6 L, the half-life (human, 25 mg) was 2.7 ± 0.2 h and the AUC(0-t) (human, 25 mg, AUC0–8) was 5880 ng·h/mL. For the same compound, the AUC(0-t) (human, 25 mg, AUC0–48) was 7680 ng·h/mL, the AUC(0-inf) (human, 25 mg) was 7690 ng·h/mL and the clearance (human, 25 mg) was 73.3 mL/min. The Cmax (human, 25 mg, Cmax) was 1610 ng/mL, the half-life (human, 25 mg, Half-life) was 4 ± 0.6 h and the Vd (human, 25 mg) was 18.9 ± 2.6 L. For the same compound, the “AUC0–8” value (human, 50 mg) was 7,955 ± 951 h · ng/ml, the “AUC0–inf” value (human, 50 mg) was 9,243 ± 1,417 h · ng/ml and the CL (human, 50 mg) was 5.5 ± 0.8 L/h. For the same compound, the Cmax (human, 50 mg) was 2,525 ± 413 ng/ml, the half-life (human, 50 mg) was 2.7 ± 0.3 h and the AUC(0-t) (human, 50 mg, AUC0–8) was 10000 ng·h/mL. For the same compound, the AUC(0-t) (human, 50 mg, AUC0–48) was 12400 ng·h/mL, the AUC(0-inf) (human, 50 mg) was 12400 ng·h/mL and the clearance (human, 50 mg) was 83.3 mL/min. It also gave a Cmax (human, 50 mg, Cmax) of 2900 ng/mL, a half-life (human, 50 mg, Half-life) of 3.5 ± 0.9 h and a Vd (human, 50 mg) of 21.5 ± 1.8 L. For the same compound, the “AUC0–48” value (human, 100 mg) was 29,828 ± 5,112 h · ng/ml, the AUC(0-t) (human, 100 mg, AUC0–8) was 21300 ng·h/mL and the AUC(0-t) (human, 100 mg, AUC0–48) was 27500 ng·h/mL. For the same compound, the AUC(0-inf) (human, 100 mg) was 27700 ng·h/mL, the clearance (human, 100 mg) was 80 mL/min and the Cmax (human, 100 mg, Cmax) was 6340 ng/mL. The Vd (human, 100 mg) was 20.8 ± 2.9 L, the “AUC0–8” value (human, 150 mg) was 27,492 ± 3,452 h · ng/ml and the “AUC0–inf” value (human, 150 mg) was 30,981 ± 4,189 h · ng/ml. For the same compound, the CL (human, 150 mg) was 4.9 ± 0.6 L/h, the Cmax (human, 150 mg) was 8,990 ± 1,056 ng/ml and the Vz (human, 150 mg) was 19.6 ± 3.2 L. The “higher plasma AUC0–8 and Cmax relative to the mean values for the cohort” value (human, 150 mg) was “approximately 23%”, the AUC(0-t) (human, 150 mg, AUC0–8) was 41500 ng·h/mL and the AUC(0-t) (human, 150 mg, AUC0–48) was 55500 ng·h/mL. It also gave an AUC(0-inf) (human, 150 mg) of 56000 ng·h/mL, a clearance (human, 150 mg) of 61.7 mL/min and a Cmax (human, 150 mg, Cmax) of 11500 ng/mL. It also gave a Vd (human, 150 mg) of 17.1 ± 2.1 L, a half-life (human, half-life) of 2.4 to 4.1 h and a Tmax (human, iv, 10 mg) of 1 h. For the same compound, the AUC(0-t) (human, iv, 10 mg, AUC0–8) was 1560 ng·h/mL, the AUC(0-inf) (human, iv, 10 mg) was 1810 ng·h/mL and the clearance (human, iv, 10 mg) was 93.3 mL/min. For the same compound, the Cmax (human, iv, 10 mg, Cmax) was 495 ± 46.5 ng/mL, the half-life (human, iv, 10 mg, Half-life) was 2.6 ± 0.1 h and the Vd (human, iv, 10 mg) was 21 ± 3.4 L. For the same compound, the Tmax (human, iv, 25 mg) was 1 h, the AUC(0-t) (human, iv, 25 mg, AUC0–8) was 3810 ng·h/mL and the AUC(0-inf) (human, iv, 25 mg) was 4440 ng·h/mL. It also gave a clearance (human, iv, 25 mg) of 96.7 mL/min, a Cmax (human, iv, 25 mg, Cmax) of 1290 ng/mL and a half-life (human, iv, 25 mg, Half-life) of 2.8 ± 0.2 h. It also gave a Vd (human, iv, 25 mg) of 23.5 ± 4.3 L, a Tmax (human, iv, 50 mg) of 1 h and an AUC(0-t) (human, iv, 50 mg, AUC0–8) of 9380 ng·h/mL. It also gave an AUC(0-inf) (human, iv, 50 mg) of 10700 ng·h/mL, a clearance (human, iv, 50 mg) of 78.3 mL/min and a Cmax (human, iv, 50 mg, Cmax) of 3420 ng/mL. The half-life (human, iv, 50 mg, Half-life) was 2.6 ± 0.3 h, the Vd (human, iv, 50 mg) was 17.8 ± 2.9 L and the Tmax (human, iv, 100 mg) was 1.1 h. The AUC(0-t) (human, iv, 100 mg, AUC0–8) was 17300 ng·h/mL, the AUC(0-inf) (human, iv, 100 mg) was 20400 ng·h/mL and the clearance (human, iv, 100 mg) was 83.3 mL/min. It also gave a Cmax (human, iv, 100 mg, Cmax) of 5330 ng/mL, a half-life (human, iv, 100 mg, Half-life) of 3 ± 0.3 h and a Vd (human, iv, 100 mg) of 21.4 ± 2.8 L. For the same compound, the Tmax (human, iv, 200 mg) was 1.1 h, the AUC(0-t) (human, iv, 200 mg, AUC0–8) was 34500 ng·h/mL and the AUC(0-inf) (human, iv, 200 mg) was 40900 ng·h/mL. The clearance (human, iv, 200 mg) was 81.7 mL/min, the Cmax (human, iv, 200 mg, Cmax) was 11300 ng/mL and the half-life (human, iv, 200 mg, Half-life) was 3.4 ± 0.7 h. For the same compound, the Vd (human, iv, 200 mg) was 24 ± 3.1 L, the Tmax (human, iv, 300 mg) was 1.1 h and the AUC(0-t) (human, iv, 300 mg, AUC0–8) was 57700 ng·h/mL. For the same compound, the AUC(0-inf) (human, iv, 300 mg) was 71000 ng·h/mL, the clearance (human, iv, 300 mg) was 70 mL/min and the Cmax (human, iv, 300 mg, Cmax) was 18200 ng/mL. The half-life (human, iv, 300 mg, Half-life) was 4.1 ± 0.4 h, the Vd (human, iv, 300 mg) was 25.4 ± 3.3 L and the Tmax (human, iv, 400 mg) was 1.1 h. For the same compound, the AUC(0-t) (human, iv, 400 mg, AUC0–8) was 89300 ng·h/mL, the clearance (human, iv, 400 mg) was 61.7 mL/min and the Cmax (human, iv, 400 mg, Cmax) was 25400 ng/mL. The half-life (human, iv, 400 mg, Half-life) was 3.7 ± 0.5 h, the Vd (human, iv, 400 mg) was 19.4 ± 3.2 L and the “dose proportionality estimate (90% CI) for AUC0–inf” value was 1.11 (1.07, 1.14). The “dose proportionality estimate (90% CI) for AUC0–last” value was 1.14 (1.11, 1.18), the “dose proportionality estimate (90% CI) for Cmax” value was 1.05 (1.02, 1.08) and the “estimate of the exponent from the power model (90% CI) for AUC0–inf” value was 1.03 (0.94, 1.12). For the same compound, the “estimate of the exponent from the power model (90% CI) for AUC0–last” value was 1.07 (0.98, 1.16), the “estimate of the exponent from the power model (90% CI) for Cmax” value was 1.03 (0.96, 1.10) and the “intersubject variability in exposure” value was 10-25%. The “steady state achieved (based on Ctrough)” value was no more than 2 days.

From paper PMC8448162, “Single- and Multiple-Ascending-Dose Study of the Safety, Tolerability, and Pharmacokinetics of the Polymyxin Derivative SPR206” (Antimicrobial Agents and Chemotherapy, 2021)
